Values quoted from earlier work in US6331653A, “Process for producing 3,4-dihydroxy-3-cyclobutene-1,2-dione” (priority 1997, dated 2001).

conditions: in an aqueous solution at 25° C.; amine compound

Compared with CN1CCCCC1 [N-methylpiperidine], CN1CCCC1 [N-methylpyrrolidine] is higher in pKa value: 10.1 for the first, 10.5 for the second.

Compared with c1ccc2ncccc2c1 [Quinoline], Cc1ccccn1 [α-picoline] is higher in pKa value: 4.8 for the first, 5.9 for the second.

same assay, conditions: water

Compared with CCN(CC)c1ccccc1 [N,N-diethylaniline], CN(C)c1ccccc1 [N,N-dimethylaniline] is lower in pKa value: 6.6 for the first, 5.2 for the second.

In the case of CCCCN(CCCC)CCCC [tributylamine], the pKa value is given as 9.9.
